Reference: US20240216330A1, “COMBINATION TREATMENT METHODS OF MULTIPLE SCLEROSIS” (BIOGEN MA INC., priority 2021, published 2024)
Counter-ions that a name gives are not always drawn. Marks after values point to notes of the source that are not given here.

Experiments:
[1] = test system: B cell-dependent experimental autoimmune encephalomyelitis (EAE); test: Prophylactic B cell-dependent EAE, murine model of multiple sclerosis (hMOG1-125 immunization); assay type: in vivo, C57BL/6 mice; conditions: BIIB091 50 mpk and/or DRF 90 mpk p.o. BID; for End score +/- SD: EAE score scale 0 to 5, end of study Day 28; for MMS +/- SD (mean maximum score): EAE score scale 0 to 5; for MMS +/- SD (mean maximum score) / EAE incidence / Median day of onset (all mice): Day 0 to Day 27; for End % body weight +/- SD: end of study Day 28; for EAE incidence / Median day of onset (all mice): female C57BL/6 mice; for EAE incidence: 20 animals per group; for Median day of onset (all mice): study end Day 28
From the text: The goal of the study is to compare efficacy of diroximel fumarate (Vumerity) alone, BIIB091 alone, and the combination diroximel fumarate and BIIB091 in B cell-dependent experimental autoimmune encephalomyelitis (EAE). B cells are required for experimental autoimmune encephalomyelitis (EAE) induced by immunization of female C57BL/6J mice with full length recombinant human myelin oligodendrocyte glycoprotein (MOG) hMOG1-125 in adjuvant (Oliver, A. R. et al. “Rat and human myelin oligodendrocyte glycoproteins induce experimental autoimmune encephalomyelitis by different mechanisms in C57BL/6 mice.” J Immunol (2003). 171(1): 462-468; Lyons, J. et al “B cells are critical to induction of experimental allergic encephalomyelitis by protein but not by a short encephalitogenic peptide”. Eur. J. Immunol. (1999), 29: 3432-3439). [table] Female mice at 9-13 weeks of age (age-matched within one week) were ordered from Taconic Biosciences and given standard water and chow ad libitum throughout the duration of the experiment. Mice were acclimated to the […] for at least 7 days prior to the start of the study. EAE was induced in all mice as follows: [table] Mice were injected subcutaneously at 2 sites in the back with the emulsion component (containing MOG1-125) of Hooke KitTM MOG1-125/CFA Emulsion PTX, catalog number EK-2160 (Hooke Laboratories, Lawrence MA). The first site of injection was in the upper back, approximately 1 cm caudal of the neck line. The second site was in the lower back, approximately 2 cm cranial of the base of the tail. The injection volume was 0.1 mL at each site. Within 2 hours of the injection of emulsion, and then again 24 hours after the injection of emulsion, the pertussis toxin component of the kit was administered intraperitoneally. Mice were assigned to groups in a balanced manner to achieve similar average weight across the groups at the start of the study (Day-1). Dosing volume of all treatments was 5 mL/kg. Both treatment compounds were formulated in the same vehicle: (0.5% HPMC E50 premium LV/0.2% Tween 20 pH 4 (50 mM Citrate Buffer) [table] Dosing of all mice started on Day 0 and continued through Day 27. Dosing for each treatment was at the same time (+/-1 hour) each dosing day. There were at least 30 and not more than 90 minutes between administration of Treatments 1 and 2. There were no less than 10 and no more than 14 hours between doses of the same article Readouts are EAE scores and body weight. Body weight were measured 3 times/week (Monday, Wednesday, Friday; weighing may be delayed 1 day if these fall on a major US holiday), starting on Day-1. Animals were scored daily starting from Day 7. All readouts continued until termination of the study. Scoring was performed blind, by a person unaware both of treatment and of previous scores for each mouse. EAE was scored on the scale of 0 to 5 according to scoring criteria in Table 3 below: [table] In-between scores were assigned when the clinical signs fall between two above defined scores. b. Statistical Analysis Hooke's standard statistical analysis for EAE studies was applied, according to Table 4 below. [table]

[2] = test system: MRL/LPR mice (autoimmune disease resembling systemic lupus erythematosus); test: MRL/LPR mice model of lupus; assay type: in vivo; conditions: female MRL/LPR mice, oral BID for 11 weeks from 9 weeks of age; BIIB091 50 mg/kg, DRF 90 mg/kg
From the text: MRL/MpJ-Fas^lppr/J (MRL-lpr) (hereinafter MRL/LPR mice) mice develop an autoimmune disease resembling systemic lupus erythematosus (SLE). These mice have a severe disease progression involving anti-DNA antibodies, fatal glomerulonephritis, vasculitis, skin lesions, lymphadenopathy and splenomegaly. The causative mutation in this strain of mice is a loss of function in the death receptor Fas and disease onset is accelerated in female mice as compared to males. For this reason, female mice were chosen for these experiments.
Female MRL/LPR mice were ordered from the Jackson laboratory and all experiments were conducted a Boulder Biopath.
Female mice were dosed orally beginning at 9 weeks of age with BIIB091 alone, DRF alone, BIIB091 and DRF in combination or the vehicle control twice daily (BID) for 11 weeks. BIIB091 was dosed at 50 mg/kg, while DRF was dosed at 90 mg/kg, respectively. Cyclophosphamide (CPA) was used as a positive control in the study and was administered through intraperitoneal injection (IP) once daily at 15 mg/kg. […]
The following serum cytokines and chemokines were assessed using Luminex assays: IL-1B, IL-2, IL-4, IL-5, IL-6, IL-10, IL-12, IL-13, IL-15, IL-17A, IL-17E, IL-17F, IL-21, IL-22, IL-23, IL-27, IL-28B, IL-31 and IL-33; sCD40L, GM-CSF, IFNγ, MIP-3α, TNFα and TNFβ. […]

[3] = test system: BCR-mediated CD69 upregulation on CD19+ B cells; test: CD69 assay in whole blood stimulated with anti-human IgD; assay type: cell-based; conditions: 30 minutes pre-incubation at 37° C., overnight anti-IgD stimulation
[4] = cited from earlier work

Row | Structure (SMILES) | End score +/- SD [1] | MMS +/- SD (mean maximum score) [1] | End % body weight +/- SD [1] | EAE incidence [1] [%^a] | Median day of onset (all mice) [1] | Efficacy in mice model of lupus [2] | Inhibition of BCR-mediated CD69 upregulation ([3]; whole blood samples from MS patients not on treatment or treated with non-DMF DMTs) | Inhibition of BCR-mediated CD69 upregulation ([3]; whole blood samples from MS patients treated with DMF) | MMF exposure ([4]; DRF 462 mg dose taken orally versus DMF 240 mg dose taken orally) | GI tolerability ([4]; compared to DMF)
1 | Cn1cc(Nc2nccc(-c3ccc4c(c3)CN(C3COC3)CC[C@H]4NC(=O)c3cn(C(C)(C)C)nn3)n2)cn1 [BIIB091, (R)-1-(tert-butyl)-N-(8-(2-((1-methyl-1H-pyrazol-4-yl)amino)pyrimidin-4-yl)-2-(oxetan-3-yl)-2,3,4,5-tetrahydro-1H-benzo[c]azepin-5-yl)-1H-1,2,3-triazole-4-carboxamide] | 0.60 +/− 0.88^a | 1.13 +/− 1.38^a | 102.8% +/− 8.3%^a | 45.0 | >28.0^a* day | efficacious | inhibited | inhibited | – | –
2 | COC(=O)/C=C/C(=O)OCCN1C(=O)CCC1=O [DRF, diroximel fumarate] | 1.00 +/− 1.19^a | 1.45 +/− 1.52^a | 98.2% +/− 8.3% | 50.0 | >28.0^a* day | did not show efficacy | – | – | comparable to that of the DMF 240 mg dose | improved GI tolerability compared to DMF
